Data as given in ChEMBL document CHEMBL1201861, “Genomics of Drug Sensitity in Cancer screening data, Wellcome Trust Sanger Institute”.

Columns and labels:
Assay in all cases: cells
BB65-RCC = type: functional, cell-based, Homo sapiens; details: Homo sapiens, BB65-RCC;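 also: growth inhibition of the cell line, measured with a cell viability assay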
Description: SANGER: Inhibition of human BB65-RCC cell growth in a cell viability assay.

NEC8 = type: functional, cell-based, Homo sapiens; details: Homo sapiens, NEC8;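 also: growth inhibition of human NEC8 cells, read out by a cell viability assay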
Description: SANGER: Inhibition of human NEC8 cell growth in a cell viability assay.

CW-2 = type: functional, cell-based, Homo sapiens; details: Homo sapiens, CW-2;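 also: growth inhibition of CW-2 cells, read out by a cell viability assay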
Description: SANGER: Inhibition of human CW-2 cell growth in a cell viability assay.

SW684 = type: functional, cell-based, Homo sapiens; details: Homo sapiens, SW684;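 also: growth inhibition of human SW684 cells, measured by a cell viability assay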
Description: SANGER: Inhibition of human SW684 cell growth in a cell viability assay.

MV4-11 = type: functional, cell-based, Homo sapiens, MV-4-11; details: Homo sapiens, MV4-11;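 also: cell viability readout measuring growth inhibition of human MV-4-11 cells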
Description: SANGER: Inhibition of human MV-4-11 cell growth in a cell viability assay.

ES6 = type: functional, cell-based, Homo sapiens; details: Homo sapiens, ES6;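 also: growth inhibition of human ES6 cells, read out with a cell viability assay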
Description: SANGER: Inhibition of human ES6 cell growth in a cell viability assay.

MZ1-PC = type: functional, cell-based, Homo sapiens; details: Homo sapiens, MZ1-PC;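 also: cell viability assay measuring growth inhibition of human MZ1-PC cells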
Description: SANGER: Inhibition of human MZ1-PC cell growth in a cell viability assay.

no-10 = type: functional, cell-based, Homo sapiens; details: Homo sapiens;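 also: growth inhibition of no-10 cells, read out with a cell viability assay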
Description: SANGER: Inhibition of human no-10 cell growth in a cell viability assay.

KM12 = type: functional, cell-based, Homo sapiens; details: Homo sapiens, KM12;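 also: KM12 cell growth inhibition, read out with a cell viability assay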
Description: SANGER: Inhibition of human KM12 cell growth in a cell viability assay.

8-MG-BA = type: functional, cell-based, Homo sapiens; details: Homo sapiens, 8-MG-BA;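 also: growth inhibition of 8-MG-BA cells, read out with a cell viability assay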
Description: SANGER: Inhibition of human 8-MG-BA cell growth in a cell viability assay.

IST-MEL1 = type: functional, cell-based, Homo sapiens; details: Homo sapiens, IST-MEL1;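 also: growth inhibition of the cell line, read out with a cell viability assay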
Description: SANGER: Inhibition of human IST-MEL1 cell growth in a cell viability assay.

DB = type: functional, cell-based, Homo sapiens; details: Homo sapiens, DB
Description: SANGER: Inhibition of human DB cell growth in a cell viability assay.

RKO = type: functional, cell-based, Homo sapiens; details: Homo sapiens, RKO;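 also: growth inhibition of human RKO cells, read out with a cell viability assay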
Description: SANGER: Inhibition of human RKO cell growth in a cell viability assay.

NOMO-1 = type: functional, cell-based, Homo sapiens; details: Homo sapiens, NOMO-1;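 also: growth inhibition of human NOMO-1 cells measured by a cell viability assay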
Description: SANGER: Inhibition of human NOMO-1 cell growth in a cell viability assay.

EKVX = type: functional, cell-based, Homo sapiens; details: Homo sapiens, EKVX;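 also: growth inhibition of human EKVX cells, read out with a cell viability assay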
Description: SANGER: Inhibition of human EKVX cell growth in a cell viability assay.

CTV-1 = type: functional, cell-based, Homo sapiens; details: Homo sapiens, CTV-1;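 also: growth inhibition of the cell line, read out with a cell viability assay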
Description: SANGER: Inhibition of human CTV-1 cell growth in a cell viability assay.

KY821 = type: functional, cell-based, Homo sapiens; details: Homo sapiens, KY821;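 also: growth inhibition of human KY821 cells, read out by a cell viability assay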
Description: SANGER: Inhibition of human KY821 cell growth in a cell viability assay.

TE-12 = type: functional, cell-based, Homo sapiens; details: Homo sapiens, TE-12;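 also: growth inhibition of TE-12 cells, read out by a cell viability assay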
Description: SANGER: Inhibition of human TE-12 cell growth in a cell viability assay.

COLO-668 = type: functional, cell-based, Homo sapiens; details: Homo sapiens, COLO-668
Description: SANGER: Inhibition of human COLO-668 cell growth in a cell viability assay.

DOHH-2 = type: functional, cell-based, Homo sapiens; details: Homo sapiens, DOHH-2;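 also: growth inhibition of human DOHH-2 cells, read out with a cell viability assay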
Description: SANGER: Inhibition of human DOHH-2 cell growth in a cell viability assay.

NB5 = type: functional, cell-based, Homo sapiens; details: Homo sapiens, NB5;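 also: growth inhibition of NB5 cells, read out as cell viability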
Description: SANGER: Inhibition of human NB5 cell growth in a cell viability assay.

MHH-PREB-1 = type: functional, cell-based, Homo sapiens; details: Homo sapiens, MHH-PREB-1;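 also: cell viability assay measuring inhibition of proliferation of human MHH-PREB-1 cells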
Description: SANGER: Inhibition of human MHH-PREB-1 cell growth in a cell viability assay.

MS-1 = type: functional, cell-based, Homo sapiens; details: Homo sapiens, MS-1;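 also: growth inhibition of MS-1 cells, read out by cell viability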
Description: SANGER: Inhibition of human MS-1 cell growth in a cell viability assay.

BT-474 = type: functional, cell-based, Homo sapiens; details: Homo sapiens, BT-474
Description: SANGER: Inhibition of human BT-474 cell growth in a cell viability assay.

TGW = type: functional, cell-based, Homo sapiens; details: Homo sapiens, TGW;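 also: growth inhibition of human TGW cells, read out with a cell viability assay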
Description: SANGER: Inhibition of human TGW cell growth in a cell viability assay.

OMC-1 = type: functional, cell-based, Homo sapiens; details: Homo sapiens, OMC-1;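 also: growth inhibition of the OMC-1 cell line, measured by a cell viability assay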
Description: SANGER: Inhibition of human OMC-1 cell growth in a cell viability assay.

EW-18 = type: functional, cell-based, Homo sapiens; details: Homo sapiens, EW-18;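 also: growth inhibition of EW-18 cells, read out by a cell viability assay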
Description: SANGER: Inhibition of human EW-18 cell growth in a cell viability assay.

KGN = type: functional, cell-based, Homo sapiens; details: Homo sapiens, KGN;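 also: growth inhibition of KGN cells, read out with a cell viability assay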
Description: SANGER: Inhibition of human KGN cell growth in a cell viability assay.

NKM-1 = type: functional, cell-based, Homo sapiens; details: Homo sapiens, NKM-1;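 also: growth inhibition of NKM-1 cells, read out with a cell viability assay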
Description: SANGER: Inhibition of human NKM-1 cell growth in a cell viability assay.

LB2241-RCC = type: functional, cell-based, Homo sapiens; details: Homo sapiens, LB2241-RCC;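 also: cell viability assay measuring how strongly the cultured human renal carcinoma line is prevented from growing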
Description: SANGER: Inhibition of human LB2241-RCC cell growth in a cell viability assay.

MOLT-4 = type: functional, cell-based, Homo sapiens; details: Homo sapiens, MOLT-4;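 also: growth inhibition of MOLT-4 cells, determined with a cell viability readout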
Description: SANGER: Inhibition of human MOLT-4 cell growth in a cell viability assay.

ETK-1 = type: functional, cell-based, Homo sapiens; details: Homo sapiens, ETK-1;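 also: growth inhibition of human ETK-1 cells, read out with a cell viability assay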
Description: SANGER: Inhibition of human ETK-1 cell growth in a cell viability assay.

NB6 = type: functional, cell-based, Homo sapiens; details: Homo sapiens, NB6;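 also: growth inhibition of NB6 cells, read out by a cell viability assay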
Description: SANGER: Inhibition of human NB6 cell growth in a cell viability assay.

Lu-65 = type: functional, cell-based, Homo sapiens; details: Homo sapiens, Lu-65;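 also: growth inhibition of Lu-65 cancer cells, read out by a cell viability assay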
Description: SANGER: Inhibition of human LU-65 cell growth in a cell viability assay.

NCI-H1155 = type: functional, cell-based, Homo sapiens; details: Homo sapiens, NCI-H1155;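 also: cell growth inhibition measured by a viability assay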
Description: SANGER: Inhibition of human NCI-H1155 cell growth in a cell viability assay.

KNS-42 = type: functional, cell-based, Homo sapiens; details: Homo sapiens, KNS-42;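 also: growth inhibition of KNS-42 cells, read out with a cell viability assay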
Description: SANGER: Inhibition of human KNS-42 cell growth in a cell viability assay.

RXF 393 = type: functional, cell-based, Homo sapiens; details: Homo sapiens, RXF 393;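 also: growth inhibition of human RXF 393 cells, read out with a cell viability assay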
Description: SANGER: Inhibition of human RXF393 cell growth in a cell viability assay.

MN-60 = type: functional, cell-based, Homo sapiens; details: Homo sapiens, MN-60;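 also: growth inhibition of the MN-60 cell line, determined with a cell viability assay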
Description: SANGER: Inhibition of human MN-60 cell growth in a cell viability assay.

SK-N-FI = type: functional, cell-based, Homo sapiens; details: Homo sapiens, SK-N-FI;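 also: cell viability assay measuring growth inhibition of human SK-N-FI cells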
Description: SANGER: Inhibition of human SK-N-FI cell growth in a cell viability assay.

GCIY = type: functional, cell-based, Homo sapiens; details: Homo sapiens, GCIY;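 also: growth inhibition of the human GCIY cell line, read out by a cell viability assay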
Description: SANGER: Inhibition of human GCIY cell growth in a cell viability assay.

JVM-3 = type: functional, cell-based, Homo sapiens; details: Homo sapiens, JVM-3;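 also: growth inhibition of human JVM-3 cells, read out with a cell viability assay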
Description: SANGER: Inhibition of human JVM-3 cell growth in a cell viability assay.

CP66-MEL = type: functional, cell-based, Homo sapiens; details: Homo sapiens, CP66-MEL;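 also: growth inhibition of CP66-MEL cells determined in a cell viability assay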
Description: SANGER: Inhibition of human CP66-MEL cell growth in a cell viability assay.

SF-268 = type: functional, cell-based, Homo sapiens; details: Homo sapiens, SF-268;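 also: growth inhibition of SF-268 cells determined with a cell viability assay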
Description: SANGER: Inhibition of human SF268 cell growth in a cell viability assay.

NCI-H1092 = type: functional, cell-based, Homo sapiens; details: Homo sapiens, NCI-H1092;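 also: cell growth inhibition measured with a cell viability assay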
Description: SANGER: Inhibition of human NCI-H1092 cell growth in a cell viability assay.

MEG-01 = type: functional, cell-based, Homo sapiens; details: Homo sapiens, MEG-01;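 also: growth inhibition of MEG-01 cells, read out by a cell viability assay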
Description: SANGER: Inhibition of human MEG-01 cell growth in a cell viability assay.

HuTu80 = type: functional, cell-based, Homo sapiens, HUTU-80; details: Homo sapiens, HuTu80;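 also: growth inhibition of HuTu80 human cells, determined with a cell viability readout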
Description: SANGER: Inhibition of human HUTU-80 cell growth in a cell viability assay.

HT-144 = type: functional, cell-based, Homo sapiens; details: Homo sapiens, HT-144
Description: SANGER: Inhibition of human HT-144 cell growth in a cell viability assay.

EOL1 = type: functional, cell-based, Homo sapiens; details: Homo sapiens, EOL1;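 also: growth inhibition of EoL-1 cells, read out by a cell viability assay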
Description: SANGER: Inhibition of human EoL-1-cell cell growth in a cell viability assay.

SW982 = type: functional, cell-based, Homo sapiens; details: Homo sapiens, SW982;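 also: growth inhibition of SW982 cells, read out with a cell viability assay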
Description: SANGER: Inhibition of human SW982 cell growth in a cell viability assay.

TGBC24TKB = type: functional, cell-based, Homo sapiens; details: Homo sapiens, TGBC24TKB;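 also: growth inhibition of human TGBC24TKB cells, read out with a cell viability assay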
Description: SANGER: Inhibition of human TGBC24TKB cell growth in a cell viability assay.

Measured: IC50

COc1cc(N2CCN(C)CC2)ccc1Nc1ncc2c(n1)N(C)c1ccccc1C(=O)N2C
4.76 µM: MEG-01
5.5 µM: TE-12
4.68 µM: RKO
1.61 µM: MV4-11
2.57 µM: DOHH-2
3.84 µM: MHH-PREB-1
7.55 µM: SF-268
2.79 µM: KGN
4.67 µM: MS-1
not listed: SW982 | TGBC24TKB
> 8 µM: all other assays above

COc1cc2c(Nc3ccc(NC(=O)c4ccccc4)cc3)ncnc2cc1OCCCN1CCOCC1
0.9 µM: MOLT-4
1.37 µM: NOMO-1
2.75 µM: JVM-3
1.4 µM: DOHH-2
0.707 µM: RKO
3.04 µM: NCI-H1155
0.796 µM: MV4-11
2.07 µM: CTV-1
1.04 µM: LB2241-RCC
3.49 µM: RXF 393
0.187 µM: EOL1
1.84 µM: NB5
1.17 µM: NKM-1
not listed: CP66-MEL | HuTu80
> 4 µM: all other assays above
